The source of these data is patent US12653865B2, “Dual-agonist compound for both GLP-1 and GIP receptors and application thereof” (Jiangsu Hengrui Pharmaceuticals Co., Ltd., priority 2020, dated 2026).

*1 amine or outer side, *2 acyl side, *3 side chain or, on linkers, in order; H or OH if unused. Where a SMILES comes first, the peptide text is derived from it. Side-chain parts run from the residue outwards. [ ]: non-standard residue; d: D form. The star is where a group is joined. C20 diacid = O=C(O)CCCCCCCCCCCCCCCCCCC(=O)*; γGlu = O=C(O)[C@H](CCC(=O)[*:2])N[*:1]; AEEA = NCCOCCOCC(=O)O; Aib = CC(C)(N)C(=O)O

Series [1] is described as follows: Stability in human plasma (LC-MS). The format is in vitro ADME. To be noted: 0 min (standard 100%).
Description: 5 μL of each of samples at concentrations of 20 ng/mL, 50 ng/mL, 100 ng/mL, 200 ng/mL, 500 ng/mL, 1000 ng/mL, 2000 ng/mL, 5000 ng/mL and 10000 ng/mL was added to 45 μL of human plasma. The content of the compounds in the samples was determined by the LC-MS method and a standard curve was formed. 5 μL of a 1 mg/mL polypeptide solution was added to 45 μL of human plasma. […] With the content at 0 min as the standard (100%), the relative content of the retained compounds in the samples at other time points was calculated.
A further series has as its system normal mice. Kind of series: Blood glucose in normal mice after single subcutaneous injection and intraperitoneal glucose. The format is in vivo, C57BL/6 mice. The following applies: 10 nmol/kg sc; for Blood glucose: glucose ip 18 h later. The procedure:
18 h later, a glucose solution at a concentration of 0.2 g/mL was intraperitoneally injected. Blood glucose values were measured by collecting blood from the tail of mice at time points of 0 min, 15 min, 30 min, 60 min, and 120 min according to the experimental design. The specific procedures were as follows: the mouse was physically immobilized with the tail exposed, and a little was cut off the tail, then the tail was squeezed to bleed, and blood glucose was determined using a Roche active glucometer after the 1 st drop of blood was discarded. The area under the blood glucose curve (AUC) was calculated from the results of all points.

The next series has as its system diet-induced obese mice. Kind of series: Body weight and fat mass in diet-induced obese mice. Format: in vivo, C57BL/6 mice. To be noted: induced obese mice, 10 nmol/kg sc. The procedure: High-fat food-induced obese male C57BL/6 mice (weighing 35-55 g, aged 10-12 weeks, purchased from Shanghai Jiesijie Laboratory Animal Co., Ltd.) were tested. […] According to the experimental design, the body weight of each mouse was measured and recorded on day 0, day 3, day 6 and so on to day 27, the average body weight of each group of mice was calculated, and weight change curves were plotted by taking the body weight on the first day as the standard. At the end, the fat and other visceral organs of each part of the mice were taken out and weighed, and the viscera/brain ratio for fat in each part of each mouse was calculated. The effect of the drug on the fat was determined by comparing the change in the organ/brain ratio for fat of different parts of each group of mice.

With `CC[C@H](C)[C@H](NC(=O)[C@H](CCCCN)NC(=O)[C@H](CC(=O)O)NC(=O)[C@H](CCCCNC(=O)COCCOCCNC(=O)COCCOCCNC(=O)CC[C@H](NC(=O)CCCCCCCCCCCCCCCCCCC(=O)O)C(=O)O)NC(=O)[C@H](Cc1ccc(O)cc1)NC(=O)[C@@H](NC(=O)[C@H](CO)NC(=O)[C@H](Cc1ccc(O)cc1)NC(=O)[C@H](CC(=O)O)NC(=O)[C@H](CO)NC(=O)[C@@H](NC(=O)[C@H](Cc1ccccc1)NC(=O)[C@@H](NC(=O)CNC(=O)[C@H](CCC(=O)O)NC(=O)C(C)(C)NC(=O)[C@@H](N)Cc1ccc(O)cc1)[C@@H](C)O)[C@@H](C)O)[C@@H](C)CC)C(=O)N[C@@H](C)C(=O)N[C@@H](C)C(=O)N[C@@H](CCC(N)=O)C(=O)N[C@@H](CCC(=O)O)C(=O)N[C@@H](Cc1ccccc1)C(=O)N[C@H](C(=O)N[C@@H](CC(N)=O)C(=O)N[C@@H](Cc1c[nH]c2ccccc12)C(=O)N[C@@H](CC(C)C)C(=O)N[C@@H](CC(C)C)C(=O)N[C@@H](C)C(=O)NCC(=O)NCC(=O)N1CCC[C@H]1C(=O)N[C@@H](CO)C(=O)N[C@@H](CO)C(=O)NCC(=O)N[C@@H](C)C(=O)N1CCC[C@H]1C(=O)N1CCC[C@H]1C(=O)N1CCC[C@H]1C(=O)N[C@@H](CO)C(N)=O)C(C)C` [Compound 7#] (H-Y[Aib]EGTFTSDYSIYK([AEEA-AEEA-γGlu-C20 diacid])DKIAAQEFVNWLLAGGPSSGAPPPS-NH2), the “relative content of compounds retained in plasma” value in series [1] came to 100.00%. Also, in the series with normal mice, the “reduction of area under the blood glucose curve compared to placebo” value was “more than 60%”. In addition, the Blood glucose was found to be 4.4 ± 0.8 mmol/L in the series with normal mice (0 min); 6.7 ± 0.8 mmol/L in the series with normal mice (15 min); 6.2 ± 1.3 mmol/L in the series on normal mice (30 min); 5.7 ± 1.2 mmol/L in the series on normal mice (60 min); 3.8 ± 1.1 mmol/L in the series on normal mice (120 min). In addition, the “Changes in body weight” value in the series with diet-induced obese mice (Day 1) is given as 0%; with diet-induced obese mice (Day 4) it was −11.0%; in the series on diet-induced obese mice (Day 7), −17.6%; in the series on diet-induced obese mice (Day 10), −22.6%; in the series on diet-induced obese mice (Day 13) it was −22.3%; in the series with diet-induced obese mice (Day 16), −22.7%. For the same molecule, the “Changes in body weight” value with diet-induced obese mice (Day 19) is recorded as −25.9%; in the series on diet-induced obese mice (Day 22), −23.9%; in the series with diet-induced obese mice (Day 25), −23.9%; with diet-induced obese mice (Day 28), −25.5%.
